“Also recorded” adds a separate entry of the source.
Legend:
patients = conditions: cited from earlier work
DRGs = experiment: Real-time RT-PCR of DRGs of oxaliplatin treated mice; format: in vivo; conditions: lumbal DRGs, day 10 after oxaliplatin treatment
Protocol: Lumbar DRGs (L2-L6) were dissected, quick-frozen in liquid nitrogen and stored at −80° C. Total RNA of the DRGs was isolated under RNase-free conditions using a mirVana miRNA Isolation Kit (Ambion) according to the manufacturer's instructions and quantified with a NanoDrop ND-1000 spectrophotometer (NanoDrop Technologies). The cDNA was synthesized from 200 ng RNA using a First Strand cDNA Synthesis Kit (Thermo Scientific) according to the manufacturer's instructions. Real-time RT-PCR was performed using an ABI Prism 7500 Sequence Detection System (Applied Biosystems) using Maxima SYBR Green qPCR Master Mix ROX as well as suitable primers for CYP2C37 (Luo et al., 1998), CYP2C38 (Zhang et al., 2003), CYP2C39 (Luo et al., 1998), CYP2J6 (Choudhary et al., 2003) and CYP3A11 (Chavan et al., 2015).
For analysis of GAPDH (Mm99999915_g1), G2A (Mm02620285_s1), 5-LOX (Mm01182747 m1), 12-LOX (Mm00545833_m1), 15-LOX (Mm00507789_m1) and COX-2 (Mm03294838_g1) assay primer from ThermoFisher Scientific were used. Reactions (total volume 10 μl) were performed in triplicate by incubating at 95° C. for 10 min, followed by 40 cycles of 15 s at 95° C. and 1 min at 60° C. […] Relative expression of target gene levels was determined using the ΔΔCt method, with Ct indicating the cycle number at which the signal of the PCR product crosses a defined threshold set within the exponential phase of the PCR. […]

C57BL/6N mice = experiment: Mechanical pain thresholds of mice after oxaliplatin (dynamic plantar aesthesiometer); format: in vivo; conditions: oxaliplatin 3 mg/kg i.p.
Description: In all behavioral tests the experimenter was unaware of the treatment and the genotype of the mice. For all behavioral experiments we used only 6-12 weeks old C57BU6N mice purchased from commercial breeding companies (Charles River, Sulzfeld, Germany, Janvier, Le Geneset-Saint-lsle, FR). G2A and TRPV1 knockout strains were from Jackson laboratories. All experiments followed the ethics guidelines for investigations in conscious animals and the procedures were approved by the local Ethics Committee. […]
To determine the mechanical thresholds of mice, a Dynamic Plantar Aesthesiometer (Ugo Basile, Comerio, Italy) was used. […] Therefore, a steel rod pushed against the plantar side of the hind paw with linear ascending force (0-5 g over 10 s, in 0.5 g/s intervals) until a fast withdraw of the paw was observed The time between the first contact of the steel rod and the paw withdraw was measured in seconds (paw withdraw latency) and a cut-off time of 20 s was set.
To investigate whether or not alterations in concentrations of oxidized lipids occur during oxaliplatin-induced neuropathic pain, 3 mg/kg oxaliplatin (Nassini et al., 2011) was injected i.p. in C57BL/6N mice and the paw withdrawal latency over 10 days was monitored using a dynamic plantar aesthesiometer. […]

PKC = PKC inhibitor on TRPV1 sensitization in DRG neurons (calcium imaging); format: cell-based, mice; conditions: GF109203X 1 μM 45 mins, 9-HODE 200 nM
Protocol: (§1) DRG primary cultures were prepared as described previously (Brenneis et al., 2011 b). Briefly, twenty to thirty murine dorsal roots ganglia (DRGs) were dissected from spinal segments and transferred directly into ice-cold Hanks' balanced salt solution with CaCI2 and MgCI2 (lnvitrogen, Carlsbad, Calif., USA). The DRGs were than incubated with Neurobasal Medium (lnvitrogen, Carlsbad, Calif., USA) containing 500 U/ml collagenase (Sigma, Deisenhofen, Germany) and 2.5 U/ml dispase II (Roche, Mannheim, Germany) for 75 mins at 37° C. […]
(§2) Calcium-imaging experiments were performed with a Leica calcium-imaging setup, consisting of a Leica DMI 4000 b inverted microscope equipped with a DFC360 FX (CCD) camera, Fura-2 filters, and an N-Plan 10×/0.25 Ph1 objective (all from Leica), was used. […] For each experiment, an area with large cell numbers 24 h after preparation (see DRG primary cultures) was chosen and 40-110 cells were monitored simultaneously. […]
(§3) TRPV1 sensitization can be mediated by PKA or PKC (Schnizler et al., 2008; Bhave et al., 2003). To investigate the signaling pathway between G2A and TRPV1 in DRG neurons, we determined which protein kinases are involved in sensitization of TRPV1. […]

PKA = PKA inhibitor on TRPV1 sensitization in DRG neurons (calcium imaging); format: cell-based, mice; conditions: H89 10 μM 45 mins
Protocol: as §1, §2, §3

TRPV1 = experiment: Calcium imaging of DRG neurons: TRPV1 sensitization (two capsaicin stimuli, Δratio); format: cell-based, mice
Protocol: DRG primary cultures were prepared as described previously (Brenneis et al., 2011 b). Briefly, twenty to thirty murine dorsal roots ganglia (DRGs) were dissected from spinal segments and transferred directly into ice-cold Hanks' balanced salt solution with CaCI2 and MgCI2 (lnvitrogen, Carlsbad, Calif., USA). The DRGs were than incubated with Neurobasal Medium (lnvitrogen, Carlsbad, Calif., USA) containing 500 U/ml collagenase (Sigma, Deisenhofen, Germany) and 2.5 U/ml dispase II (Roche, Mannheim, Germany) for 75 mins at 37° C. After removal of the collagenase/dispase-solution cells were washed three times with medium containing 10% FCS, penicillin/streptomycin/gentamycin (lnvitrogen, Carlsbad, Calif., USA) and incubated in 0.05% trypsin for 10 min at 37° C. After two washing steps, the cells were mechanically dissociated with a 1 ml pipette and plated on Poly-L-lysine (Sigma) coated coverslips. After incubation at 37° C. for 2 h, Neurobasal Medium containing glutamine (2 mm), penicillin (100 U/ml), streptomycin (100 μg/ml), B-27 and gentamicin (50 μg/ml) was added to the cells and incubated overnight. The neurons were used for Calcium imaging the next day.
Calcium-imaging experiments were performed with a Leica calcium-imaging setup, consisting of a Leica DMI 4000 b inverted microscope equipped with a DFC360 FX (CCD) camera, Fura-2 filters, and an N-Plan 10×/0.25 Ph1 objective (all from Leica), was used. Images were taken every 2 s and were processed with the LAS AF-software (Leica). For each experiment, an area with large cell numbers 24 h after preparation (see DRG primary cultures) was chosen and 40-110 cells were monitored simultaneously. Cells were loaded with 5 μM fura-2-AM-ester (Biotium), incubated for 45-60 min at 37° C. and washed with ringer solution (145 mM NaCI, 1.25 mM CaCl2, 1 mM MgCl2, 5 mM KCI, 10 mM D-glucose, and 10 mM HEPES, adjusted to pH 7.3). Baseline measurements were performed with ringer solution at a flow rate of 1-2 ml/min at room temperature. For the activation of TRPV1 we used a solution of 200 nM capsaicin (Sigma), for TRPA1 activation 50 μM allyl isothiocyanate (AITC, Fluka Analytic) and for TRPM8 100 μM L-menthol (Sigma) dissolved in ringer solution. For TRP-channel sensitization, cells were incubated for 2 mins with different concentrations (50 nM-1000 nM) of (±) 9-HODE (Cayman) or (±) 13-HODE (Cayman) before the second stimulus took place. For control stimulations, the corresponding volume of DMSO (Sigma) was mixed in ringer solution and applied with the same flow rate. 10 μM of the PKA inhibitor H89 (Tocris) or 1 μM of the PKC inhibitor GF1 09203X (Tocris) was co-incubated with fura-2 for 45 mins. As positive control for PKA activation 40 iJM 8-bromo-cAMP (Cayman) and for PKC activation 500 nM bradykinin (Cayman) was used. At the end of each measurement, 50 mM KCl was applied to identify neurons.

SMILES: O=C1[O][Pt]2([NH][C@@H]3CCCC[C@H]3[NH]2)[O]C1=O [oxaliplatin]
- patients in whom CIPN is induced (patients): up to 80%
- mRNA expression of CYP2J6, 5-LOX, 12-LOX, 15-LOX and COX-2 (DRGs): No difference in mRNA expression
- start of reduced mechanical paw withdrawal latencies (C57BL/6N mice): 4 days
- mechanical paw withdrawal latencies (C57BL/6N mice; C57BL/6N mice, monitored over 10 days): significantly reduced mechanical paw withdrawal latencies

SMILES: CN(C)CCCn1cc(C2=C(c3c[nH]c4ccccc34)C(=O)NC2=O)c2ccccc21 [GF109203X]
- effect on 9-HODE-induced TRPV1 sensitization (PKC): supresses the 9-HODE-dependent sensitization of TRPV1; also recorded: prevented TRPV1 sensitization

SMILES: O=S(=O)(NCCNC/C=C/c1ccc(Br)cc1)c1cccc2cnccc12 [H89]
- effect on PKA-dependent TRPV1 sensitization caused by 8-bromo-cAMP (PKA; 8-bromo-cAMP 40 μM): inhibited
- effect on 9-HODE-induced TRPV1 sensitization (PKA; 9-HODE 200 nM): not influenced; also recorded: failed to supress

SMILES: CCCCCC(O)/C=C/C=C\CCCCCCCC(=O)O (stereo not drawn) [13-HODE]
- sensitization of TRPV1 (Δratio of first and second capsaicin stimulus) (TRPV1; DRG neurons, lipid incubated 2 minutes before second capsaicin stimulus, 0 to 1000 nM): no strong sensitizing effect
- calcium flux of second vs first capsaicin stimulus (Δratio) (TRPV1; wildtype DRG neurons, lipid 200 nM 120 s, capsaicin 200 nM 30 s): does not increase the Δratio

Source: patent US20190211397A1, “INHIBITORS OF GPR132 FOR USE IN PREVENTING AND/OR TREATING CHEMOTHERAPY-INDUCED NEUROPATHIC PAIN” (Fraunhofer-Gesellschaft zur Foerderung der angewandten …, priority 2016, published 2019)
